From PMC12951562, “SH2scan: Mapping SH2 Domain-Ligand Binding Selectivity for Inhibitors and Degraders” (Journal of Medicinal Chemistry, 2026)

Experiments:
Assay in all cases: biochemical
Type in all cases: binding
TNS2 = biological target: T1, TNS2 (Homo sapiens, UniProt Q63HR2); details: primary screen, 10 μM; read-out: percent of DMSO vehicle control
T1 construct: made in house; host or cells: HEK293 (transient transfection), unpurified extract
T1 sequence (Q63HR2 1-1409): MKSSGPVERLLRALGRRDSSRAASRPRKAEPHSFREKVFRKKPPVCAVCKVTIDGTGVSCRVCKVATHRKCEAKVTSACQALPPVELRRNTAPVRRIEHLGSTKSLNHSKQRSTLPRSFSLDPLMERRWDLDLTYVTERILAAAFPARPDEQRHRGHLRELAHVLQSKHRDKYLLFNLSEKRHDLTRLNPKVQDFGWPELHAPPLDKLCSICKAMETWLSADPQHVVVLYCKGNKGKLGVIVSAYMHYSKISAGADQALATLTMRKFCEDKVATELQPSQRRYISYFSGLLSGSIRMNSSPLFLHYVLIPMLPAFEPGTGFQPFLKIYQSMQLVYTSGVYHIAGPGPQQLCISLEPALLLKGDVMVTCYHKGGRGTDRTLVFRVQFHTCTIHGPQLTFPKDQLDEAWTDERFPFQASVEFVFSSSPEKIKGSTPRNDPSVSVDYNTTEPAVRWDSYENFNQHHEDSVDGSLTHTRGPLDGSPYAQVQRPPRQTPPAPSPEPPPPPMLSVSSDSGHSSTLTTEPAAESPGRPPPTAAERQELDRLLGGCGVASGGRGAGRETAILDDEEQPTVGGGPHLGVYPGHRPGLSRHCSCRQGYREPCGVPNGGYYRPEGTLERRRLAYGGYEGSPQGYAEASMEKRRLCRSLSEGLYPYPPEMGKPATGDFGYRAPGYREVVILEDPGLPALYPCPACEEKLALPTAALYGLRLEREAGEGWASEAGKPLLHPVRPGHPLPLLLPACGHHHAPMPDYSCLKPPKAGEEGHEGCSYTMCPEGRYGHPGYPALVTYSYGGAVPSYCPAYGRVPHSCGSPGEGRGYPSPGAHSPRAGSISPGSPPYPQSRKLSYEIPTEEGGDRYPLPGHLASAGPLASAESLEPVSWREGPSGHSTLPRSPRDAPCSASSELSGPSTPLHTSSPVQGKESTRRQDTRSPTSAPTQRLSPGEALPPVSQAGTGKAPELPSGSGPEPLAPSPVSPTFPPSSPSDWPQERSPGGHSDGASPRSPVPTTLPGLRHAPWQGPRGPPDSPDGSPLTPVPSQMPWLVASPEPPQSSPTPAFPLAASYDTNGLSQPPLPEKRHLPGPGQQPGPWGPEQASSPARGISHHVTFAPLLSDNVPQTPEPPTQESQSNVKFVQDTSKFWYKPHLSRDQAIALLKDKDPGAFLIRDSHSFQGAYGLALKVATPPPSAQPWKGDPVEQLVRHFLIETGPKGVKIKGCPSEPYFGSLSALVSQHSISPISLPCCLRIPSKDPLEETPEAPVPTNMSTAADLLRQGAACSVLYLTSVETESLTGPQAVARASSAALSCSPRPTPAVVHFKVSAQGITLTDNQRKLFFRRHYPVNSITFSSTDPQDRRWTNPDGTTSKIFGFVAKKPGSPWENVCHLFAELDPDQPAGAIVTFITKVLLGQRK

SH2D6 = biological target: T2, SH2D6 (Homo sapiens, UniProt Q7Z4S9); details: primary screen, 10 μM; read-out: percent of DMSO vehicle control
T2 construct: made in house; host or cells: HEK293 (transient transfection), unpurified extract

YES = biological target: T3, YES (Homo sapiens, UniProt P07947); details: primary screen, 10 μM; read-out: percent of DMSO vehicle control
T3 construct: the DNA-tagged SH2 domain concentrations used in this study were <0.1 nM; made in house; host or cells: HEK293 (transient transfection; unpurified cell extract)

VAV1 = biological target: T4, VAV1 (Homo sapiens, UniProt P15498); details: primary screen, 10 μM; read-out: percent of DMSO vehicle control
T4 construct: made in house; host or cells: HEK293 (transient transfection), unpurified extract
T4 sequence (P15498 1-845): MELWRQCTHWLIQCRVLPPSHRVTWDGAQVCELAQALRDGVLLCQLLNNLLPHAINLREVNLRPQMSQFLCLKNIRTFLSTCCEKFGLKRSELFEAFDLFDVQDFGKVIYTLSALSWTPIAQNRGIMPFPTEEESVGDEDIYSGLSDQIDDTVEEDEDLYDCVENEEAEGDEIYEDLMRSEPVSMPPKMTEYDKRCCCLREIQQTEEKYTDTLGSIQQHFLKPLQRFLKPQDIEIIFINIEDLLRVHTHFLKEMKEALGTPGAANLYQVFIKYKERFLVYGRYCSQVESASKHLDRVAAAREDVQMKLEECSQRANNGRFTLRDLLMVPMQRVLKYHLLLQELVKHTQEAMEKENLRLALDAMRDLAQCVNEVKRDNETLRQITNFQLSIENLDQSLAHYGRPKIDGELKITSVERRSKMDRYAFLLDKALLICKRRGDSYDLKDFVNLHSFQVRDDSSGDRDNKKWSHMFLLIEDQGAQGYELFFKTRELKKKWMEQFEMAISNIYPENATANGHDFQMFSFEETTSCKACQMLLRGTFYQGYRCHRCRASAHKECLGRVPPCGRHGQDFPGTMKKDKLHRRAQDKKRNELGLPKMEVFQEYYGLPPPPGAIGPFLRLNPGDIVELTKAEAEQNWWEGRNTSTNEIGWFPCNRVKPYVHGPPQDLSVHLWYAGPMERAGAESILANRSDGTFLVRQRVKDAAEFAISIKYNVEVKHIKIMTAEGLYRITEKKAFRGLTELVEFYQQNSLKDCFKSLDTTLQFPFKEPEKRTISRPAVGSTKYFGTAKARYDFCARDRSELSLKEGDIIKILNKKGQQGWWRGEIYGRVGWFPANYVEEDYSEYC

FGR = biological target: T5, FGR (Homo sapiens, UniProt P09769)
T5 construct: the DNA-tagged SH2 domain concentrations used in this study were <0.1 nM; made in house; host or cells: HEK293 (transient transfection; unpurified extract)

SRMS = biological target: T6, SRMS (Homo sapiens, UniProt Q9H3Y6)
T6 construct: made in house; host or cells: HEK293 (transient transfection), unpurified extract

NCK2 = biological target: T7, NCK2 (Homo sapiens, UniProt O43639); details: primary screen, 10 μM; read-out: percent of DMSO vehicle control
T7 construct: the DNA-tagged SH2 domain concentrations used in this study were <0.1 nM; made in house; host or cells: HEK293 (transient transfection, unpurified extract)
T7 sequence (O43639 285-380 limits assumed): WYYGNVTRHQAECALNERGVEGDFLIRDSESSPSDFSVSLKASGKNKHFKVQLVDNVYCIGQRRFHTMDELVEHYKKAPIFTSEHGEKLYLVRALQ

FER = biological target: T8, FER (Homo sapiens, UniProt P16591)
T8 construct: the DNA-tagged SH2 domain concentrations used in this study were <0.1 nM; made in house; host or cells: HEK293 (transient transfection; unpurified extract)

TNS1 = biological target: T9, TNS1 (Homo sapiens, UniProt Q9HBL0); details: primary screen, 10 μM; read-out: percent of DMSO vehicle control
T9 construct: made in house; host or cells: HEK293 (transient transfection), unpurified extract

[1] = primary screen, 10 μM, read-out: percent of DMSO vehicle control

T6 sequence (Q9H3Y6 whole entry): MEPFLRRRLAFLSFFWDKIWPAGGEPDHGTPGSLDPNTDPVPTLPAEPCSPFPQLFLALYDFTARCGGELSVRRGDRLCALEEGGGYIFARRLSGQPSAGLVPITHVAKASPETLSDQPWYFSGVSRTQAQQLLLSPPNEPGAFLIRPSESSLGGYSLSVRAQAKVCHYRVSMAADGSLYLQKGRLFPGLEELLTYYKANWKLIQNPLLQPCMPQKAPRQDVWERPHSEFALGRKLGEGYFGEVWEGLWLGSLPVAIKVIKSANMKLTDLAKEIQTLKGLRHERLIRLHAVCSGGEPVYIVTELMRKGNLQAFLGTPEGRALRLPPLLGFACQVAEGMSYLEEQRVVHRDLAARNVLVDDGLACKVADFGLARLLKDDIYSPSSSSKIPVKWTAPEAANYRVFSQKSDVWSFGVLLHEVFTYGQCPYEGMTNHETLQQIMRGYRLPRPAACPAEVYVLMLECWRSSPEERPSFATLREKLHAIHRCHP
T5 sequence (P09769 144-241 limits assumed): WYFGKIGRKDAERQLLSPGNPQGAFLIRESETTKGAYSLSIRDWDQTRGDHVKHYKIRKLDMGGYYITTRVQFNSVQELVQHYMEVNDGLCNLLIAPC
T8 sequence (P16591 460-550 limits assumed): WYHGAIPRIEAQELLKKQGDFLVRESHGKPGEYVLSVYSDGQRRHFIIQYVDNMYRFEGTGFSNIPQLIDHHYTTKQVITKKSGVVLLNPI
T9 sequence (Q9HBL0 whole entry): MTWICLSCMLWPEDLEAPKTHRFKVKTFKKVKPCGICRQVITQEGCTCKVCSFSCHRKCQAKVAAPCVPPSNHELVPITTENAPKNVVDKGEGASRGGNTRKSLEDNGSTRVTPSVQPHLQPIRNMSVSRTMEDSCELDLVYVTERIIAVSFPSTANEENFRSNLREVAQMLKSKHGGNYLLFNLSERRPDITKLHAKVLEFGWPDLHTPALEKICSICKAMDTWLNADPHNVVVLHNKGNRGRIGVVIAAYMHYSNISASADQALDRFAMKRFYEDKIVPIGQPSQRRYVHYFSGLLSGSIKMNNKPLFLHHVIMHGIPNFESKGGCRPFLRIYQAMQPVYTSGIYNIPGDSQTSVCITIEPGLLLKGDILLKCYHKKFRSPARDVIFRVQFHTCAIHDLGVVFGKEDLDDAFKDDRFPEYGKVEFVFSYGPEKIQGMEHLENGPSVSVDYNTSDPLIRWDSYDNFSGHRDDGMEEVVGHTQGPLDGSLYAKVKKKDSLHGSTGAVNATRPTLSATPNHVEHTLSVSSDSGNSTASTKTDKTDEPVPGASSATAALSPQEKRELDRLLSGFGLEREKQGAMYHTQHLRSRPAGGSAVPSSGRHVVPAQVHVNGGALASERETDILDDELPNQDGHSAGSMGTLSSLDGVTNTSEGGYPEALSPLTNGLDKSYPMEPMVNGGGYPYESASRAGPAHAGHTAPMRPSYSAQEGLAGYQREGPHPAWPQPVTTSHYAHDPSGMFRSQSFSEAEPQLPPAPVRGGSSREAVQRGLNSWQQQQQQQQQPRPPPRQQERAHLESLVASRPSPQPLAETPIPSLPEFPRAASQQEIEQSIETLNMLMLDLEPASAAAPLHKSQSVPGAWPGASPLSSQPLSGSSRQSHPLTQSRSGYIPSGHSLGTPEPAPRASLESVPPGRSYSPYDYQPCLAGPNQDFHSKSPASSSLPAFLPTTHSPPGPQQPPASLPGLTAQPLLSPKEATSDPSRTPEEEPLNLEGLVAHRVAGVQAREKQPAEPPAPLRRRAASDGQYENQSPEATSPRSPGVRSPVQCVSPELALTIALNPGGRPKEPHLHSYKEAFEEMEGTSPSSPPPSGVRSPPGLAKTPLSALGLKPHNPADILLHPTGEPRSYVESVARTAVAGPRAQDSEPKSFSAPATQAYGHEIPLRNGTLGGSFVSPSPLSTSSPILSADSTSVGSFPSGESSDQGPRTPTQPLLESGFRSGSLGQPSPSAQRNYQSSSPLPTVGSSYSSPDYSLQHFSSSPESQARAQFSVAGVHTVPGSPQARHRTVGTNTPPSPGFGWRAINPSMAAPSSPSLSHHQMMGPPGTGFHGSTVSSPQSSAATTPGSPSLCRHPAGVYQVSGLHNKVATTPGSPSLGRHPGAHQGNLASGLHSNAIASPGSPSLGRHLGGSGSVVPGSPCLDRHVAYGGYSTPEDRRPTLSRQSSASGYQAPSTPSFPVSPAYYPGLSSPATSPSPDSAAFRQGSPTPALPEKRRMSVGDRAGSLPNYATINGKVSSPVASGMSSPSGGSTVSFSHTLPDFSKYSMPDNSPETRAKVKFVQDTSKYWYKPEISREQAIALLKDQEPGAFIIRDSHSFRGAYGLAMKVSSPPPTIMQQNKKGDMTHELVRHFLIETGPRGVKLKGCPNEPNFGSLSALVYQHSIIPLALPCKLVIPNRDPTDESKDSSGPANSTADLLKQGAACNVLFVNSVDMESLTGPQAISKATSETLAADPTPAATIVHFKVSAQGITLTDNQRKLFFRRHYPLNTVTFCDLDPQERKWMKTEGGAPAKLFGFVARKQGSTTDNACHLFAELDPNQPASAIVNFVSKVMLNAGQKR
T2 sequence (Q7Z4S9 whole entry): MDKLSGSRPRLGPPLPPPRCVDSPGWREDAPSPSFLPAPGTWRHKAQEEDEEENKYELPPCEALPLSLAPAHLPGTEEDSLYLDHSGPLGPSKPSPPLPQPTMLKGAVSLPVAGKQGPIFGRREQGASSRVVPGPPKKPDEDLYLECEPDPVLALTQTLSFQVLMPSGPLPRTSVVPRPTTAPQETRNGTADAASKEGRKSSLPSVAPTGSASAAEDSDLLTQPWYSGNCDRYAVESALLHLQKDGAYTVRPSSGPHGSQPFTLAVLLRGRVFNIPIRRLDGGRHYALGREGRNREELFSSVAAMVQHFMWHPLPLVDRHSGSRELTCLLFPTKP
T3 sequence (P07947 158-255 limits assumed): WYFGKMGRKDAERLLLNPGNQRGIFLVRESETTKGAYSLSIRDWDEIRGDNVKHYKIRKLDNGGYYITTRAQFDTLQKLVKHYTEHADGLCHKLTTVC

In the case of `O=C(COc1ccc2cc(C(=O)Nc3ccccc3)ccc2c1)NCc1ccc(OP(=O)(O)O)c(OP(=O)(O)O)c1` [Stafib-1], the remaining activity at 10 µM (TNS2) is reported as 86 ± 8.8%, the remaining activity at 10 µM (SH2D6) is reported as 88.5 ± 5.5% and the remaining activity at 10 µM (YES) is reported as 63.1 ± 24.3%. The remaining activity at 10 µM (VAV1) was 106%, the KD (FGR; dose-response) was “No Hit” and the remaining activity at 10 µM (FGR; [1]) was 34.3%. For the same compound, the KD (SRMS; dose-response) was “No Hit”, the remaining activity at 10 µM (SRMS; [1]) was 8.9 ± 56.2% and the remaining activity at 10 µM (NCK2) was 91.4 ± 35.1%. The Kd (FER; dose-response, read-out: KD) was 1900 nM, the remaining activity at 10 µM (FER; [1]) was 10.8% and the remaining activity at 10 µM (TNS1) was 132%.
